Measurements: PubChem BioAssay AID179 (DTP/NCI, 2004)
Activity calls are given as the source filed them.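 How the source made its calls: active means compounds giving half or more protection of infected cells from virus-caused growth loss, again on retest; inactive means the rest.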 Where a SMILES comes first, the peptide text is derived from it. [ ]: non-standard residue; d: D form. The star is where a group is joined. NMeAc5c = CNC1(C(=O)O)CCCC1; Cbz = O=C(OCc1ccccc1)*; Boc = CC(C)(C)OC(=O)*; OBn = c1ccc(CO*)cc1; tBu = CC(C)(C)*

Test system: CEM cells HIV-1 protection, formazan growth assay
Assay: NCI AIDS Antiviral Assay
Details: for IC50: measured here: growth of uninfected CEM cells
Procedure, shortened: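 Protection of CEM cells against HIV-1 measured as cell growth via soluble formazan read-out, with five concentrations tested on both infected and uninfected cells; failure to protect may reflect toxicity.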

| Structure (SMILES) | EC50 [µM] | IC50 [µM] | outcome |
| --- | --- | --- | --- |
| COc1cc(C2C(C#N)=C(N)OC3=C2CCS(=O)(=O)c2ccc(C)cc23)cc(OC)c1OC (configuration not stated) | > 200 | > 200 |  |
| CCOC(=O)CC(=O)ON(C)C(=O)Cc1ccccc1 | > 251 | > 251 |  |
| CCOC(=O)CCC(NC(=O)c1ccc(Oc2nc3ccccc3nc2C(=O)OCC)cc1)C(=O)OCC (configuration not stated) | > 200 | > 200 |  |
| CCOC(=O)CC(CC(=O)OCC)n1cnc2c(N)ncnc21 |  |  | inactive |
| CC(=O)Nc1ccc(C(=O)N[C@@H]2C(=O)N3[C@@H]2SC(C)(C)[C@@H]3C(=O)O)cn1 | 56.2 | 75.9 |  |
| Cc1cccc(NC(=O)CC(=O)N2N=C(N3c4ccccc4Sc4ccccc43)CC2c2ccccc2)c1 (configuration not stated) | > 151 | > 151 |  |
| CCOC(=O)CC(=O)Cc1oc2c(C(C)=O)c(O)c(C)c(O)c2c1C | > 200 | 21.4 |  |
| COc1ccc(C2C3COc4ccccc4C3=NN2c2ccccc2)cc1 (configuration not stated) | > 200 | > 200 |  |
| CC(=O)Nc1ccc(C2CC(c3ccc([N+](=O)[O-])cc3)=Nc3ccccc3S2=O)cc1 (configuration not stated) | > 3.31 | > 3.31 |  |
| NC(=S)C(=S)N/C=C/c1nc2ccccc2[nH]c1=O | > 200 | 7.94 |  |
| CCOC(=O)N1CCN(Cc2cc(=O)n3ccc(C)cc3n2)CC1 | > 200 | > 200 |  |
| Cc1nc2cc[nH]n2c(=O)c1CCc1ccccc1 | > 200 | 151 |  |
| CCC[CH2][Sn]([CH2]CCC)([O]C(=O)c1cc(OC)c(OC)cc1OC)[O][Sn]([CH2]CCC)([CH2]CCC)[O]C(=O)c1cc(OC)c(OC)cc1OC | > 11 | 0.302 |  |
| O=C(N/N=C/C=C/c1ccccc1)c1ccccc1Nc1ccccc1C(=O)N/N=C/C=C/c1ccccc1 | > 34.7 | 4.9 |  |
| CN1COc2c(nc(-c3ccccc3)[nH]c2=O)C1 | > 1020 | 61.7 |  |
| CC(OC(C)(C)C)C(NC(=O)C(CCCCNC(=O)OC(C)(C)C)NC(=O)C(Cc1c[nH]c2ccccc12)NC(=O)OCc1ccccc1)C(=O)NC(Cc1ccccc1)C(=O)N(C)C1(C(=O)NC(Cc2ccccc2)C(=O)OCc2ccccc2)CCCC1 (configuration not stated) (Cbz-WK(Boc)T(tBu)F[NMeAc5c]F-OBn; configuration not given here) | > 50.1 | 38.9 |  |

| Structure (SMILES) | EC50 [µM] | IC50 [µM] | outcome |
| --- | --- | --- | --- |
| CCSc1nc(-c2ccc(OC)cc2)c(C#N)c(=O)n1C1OCC(OC(C)=O)C(OC(C)=O)C1OC(C)=O (configuration not stated) | > 200 | > 200 |  |
| C/C=C(\C)C(=O)c1c(O)cc(O)c2ccc(=O)oc12 | > 200 | 112 |  |
| O=C(O)CCC(NC(=O)c1ccc(OCc2nc3cc(C(F)(F)F)ccc3nc2-c2ccccc2)cc1)C(=O)O (configuration not stated) | > 200 | > 200 |  |
| OCC1OC(c2scc3c(=S)nc[nH]c23)C(O)C1O (configuration not stated) | > 200 | 12.6 |  |
| Oc1ccc(Cl)cc1CN1CCN(Cc2cc(Cl)ccc2O)C1 | > 200 | 1.38 |  |
| Cc1ccc(SCC(OCn2cnc3c(N)ncnc32)[C@H](C)F)cc1 (some centres not stated) | > 200 | 191 |  |
| COC(=O)c1ccc(Nc2nc3nc[nH]c3c(=O)[nH]2)cc1 | > 200 | 42.7 |  |
| CCC(=O)c1cc(C(=O)C(=S)SC)cc(C(=O)C(=S)SC)c1 | 20 | 30.9 |  |
| O=C(O)C1[C@@H](C(=O)O)C1(Br)CBr (some centres not stated) | > 200 | > 200 |  |
| CC(CS(C)(=O)=O)S(=O)(=O)O (configuration not stated) | > 200 | > 200 |  |
| COc1ccccc1/C=C1\C(=O)N(C(=O)Cc2ccccc2)N=C1C | > 15.5 | > 15.5 |  |
| Cc1c(Cl)cccc1NC(=O)C(=O)C1C(=O)NC(=O)NC1=O | > 398 | > 398 |  |
| CCN(CC)CCN1C(=O)CN=C(c2ccccn2)c2cc(Cl)ccc21 | > 447 | 240 |  |
| CC(C)(C)CC1=CC(=O)C(C2=CC(=O)C(CC(C)(C)C)=CC2=O)=CC1=O | > 2 | > 2 |  |
| Nc1nc(N)c(CCCCc2ccccc2)c(/C=C/c2ccc([N+](=O)[O-])cc2)n1 |  |  | inactive |
| CC1(C)CC2C=C(C=O)C3(C=O)CC3(C)C2C1 (configuration not stated) | > 3.47 | 0.501 |  |
